Tests used:
[1] = Body weight monitoring, stressed mice; type: in vivo; settings: UCMS-stressed mice, Shan-zha and NHT 30 mg/kg, escitalopram 15 mg/kg i.p., 3 weeks, vs vehicle
Procedure: Crataegus pinnatifida, Triticum aestivum, Lilium brownii and Fructus zizyphi jujuba were purchased as freeze-dried granules (KPC Products, Inc., Irvine, CA, USA). Each herb was dissolved in saline with 1% dimethylsulfoxide (DMSO) to a final concentration of 0.47 mg/ml and injected i.p. individually (30 mg/kg) or with the other components to form the formula (NHT, 30 mg/kg). […] Vehicle treatment included i.p. injection of saline with 1% DMSO. All treatments were carried out for 3 weeks. Mice were weighed every 3 days throughout the treatment period. Change in weight was calculated as final (weight-initial weight)/initial weight×100.

stressed mice = test: EPM, UCMS-stressed mice, Example 7; type: in vivo
Procedure: Animals. ICR outbred mice (Envigo RMS (Harlen), Israel) are kept in the vivarium of the Open University lab in Hadassah medical center, Jerusalem. Mice are kept on a reversed 12 h light/dark cycle and given ad libitum access to food and water. All experiments are performed during the dark phase under red light (7:00-19:00). All experiments have been approved by the committee for animal care and use according to the NIH guidelines. Drugs. Drugs are dissolved in saline and 1% DMSO to the desired concentration and administered i.p. Herbal mixture and Shan-zha (30 mg/kg) will be prepared by dissolving each component (KPC Products, Inc., CA, USA) to a final concentration of 0.47 mg/ml. […] Unpredictable chronic mild stress (UCMS). Mice are exposed to UCMS for 4 weeks at the age of 4 weeks as previously described. Elevated plus maze (EPM). This task is based on the natural tendency of mice to avoid open and elevated places. EPM are performed as previously described. Anxiety-like behavior are expressed as the time the animal spent in the open, unprotected arms of the maze.

In the case of `CN(C)CCC[C@@]1(c2ccc(F)cc2)OCc2cc(C#N)ccc21` [escitalopram], the weight change [1] is reported as “significantly increased weight compared to vehicle”, the weight change ([1]; listed as Escitalopram) is reported as “higher weight gain in comparison with vehicle-treated mice” and the “anxiety-like behavior in the EPM” value (stressed mice; stressed mice, 30 mg/kg (escitalopram 15 mg/kg) i.p., 3 weeks, vs vehicle) is reported as “exhibited reduced anxiety-like behavior in the EPM compared to vehicle-treated stressed mice”. The “time (seconds) spent in open arms in the EPM, FIG. 22 experiment” value (stressed mice; vs saline, fractions SZ 50% and SZ 20% at 3 mg, listed as Escitalopram) was “Mice treated with saline spent significantly less time in open arms in comparison to other treatment groups”.
